From patent US20210393642A1, “COMPOSITION FOR PREVENTING OR TREATING SJOGREN'S SYNDROME” (SAMJIN PHARMACEUTICAL CO., LTD., priority 2018, published 2021)

Key:
[1] = tested on: IL-2; test: Quantitative RT-PCR of mRNA in lacrimal and salivary gland tissues, IL-2; type: in vivo, mice; conditions: N=6, FIGS. 4a, 4b
[2] = tested on: IL-22; test: Quantitative RT-PCR of mRNA in lacrimal and salivary gland tissues, IL-22; type: in vivo, mice; conditions: N=6
[3] = tested on: p-AKT; test: Protein expression in lacrimal and salivary gland tissues (immunoblotting), p-AKT; type: in vivo, mice; conditions: versus control, N=3, FIG. 3
Method: (§1) The lacrimal gland and salivary gland tissues of the test animals were isolated, placed in PBS, and homogenized on ice. 1 ml of RIPA lysis buffer (50 mM Tris-Cl pH7.4, 150 mM NaCl, 1 mM EDTA, 1% Triton X-100, 0.1% SDS, 1% sodium deoxycholate, 0.5 mM phenylmethylsulfonyl fluoride, 2 μg/ml leupeptin, 2 μg/ml aprotinin, 10 mM NaF, and 1 mM sodium orthovanadate) was added to each homogenized tissue which was then kept on ice for 5 minutes. Each tissue solution was then centrifuged (at 13000 rpm for 20 mins), and only the supernatant was collected, and then protein correction was performed. Samples were incubated with anti-Akt (1:400) and anti-interleukin 17A (1:200) antibodies and subjected to immunoprecipitation (IP) (overnight), followed by sampling. Each of the samples was subjected to SDS-PAGE and transferred to polyvinylidene fluoride (PVDF) membranes. Then, the Akt-IP-samples were incubated with phospho-Akt (S473) (diluted at 1:100,000 in blocking buffer (TBS+Tween20)+0.1% skim milk) at 4° C. overnight, and the IL-17A-IP-samples were incubated with IL-17A primary antibody (diluted at 1:100,000 in blocking buffer (TBS+Tween20)+0.1% skim milk) at 4° C. overnight. Next, the samples were incubated with HRP-conjugated secondary antibody, and then protein bands were visualized with ECL solution in the dark and quantified by exposure to X-ray films.

[4] = tested on: IL-18; test: Quantitative RT-PCR of mRNA in lacrimal and salivary gland tissues, IL-18; type: in vivo, mice; conditions: N=6
[5] = tested on: anti-SSB/La; test: Quantification (ELISA) of autoantibody anti-SSB/La in plasma; type: in vivo, mice
Description: (§2) As markers of Sjogren's syndrome, anti-SSA/Ro (Signosis, #EA-5202, US) and anti-SSB/La (Signosis, #EA-5204, US), which are autoantibodies based on RNP particles, and interleukin-17A cytokine (Signosis, #EA-2516, US) which is involved in the onset of autoimmune diseases, were quantified by Enzyme-linked ImmunoSorbent Assay (ELISA) in order to determine the secretion and production of these markers in serum.

[6] = tested on: IL-6; test: Quantitative RT-PCR of mRNA in lacrimal and salivary gland tissues, IL-6; type: in vivo, mice; conditions: N=6
[7] = tested on: disease model of Sjogren's syndrome (Nfkbiz^−/− or IkB-ξ-deficient mice, C57BL/6); test: Analysis of inflammatory phenotypes in animals (disease scores); type: in vivo; conditions: compared to control group, from 2 weeks after administration; N=11; FIG. 7
Description: The degree of inflammation in the animal model was scored according to the following criteria and analyzed.
2: eyes with discharge that were difficult to open
3: periocular skin erosion
4: inflammation reaching perioral skin
5: erosion and loss of hair in whole face.

[8] = tested on: TNF-α; test: Quantitative RT-PCR of mRNA in lacrimal and salivary gland tissues, TNF-α; type: in vivo, mice; conditions: N=6
[9] = tested on: IL-13; test: Quantitative RT-PCR of mRNA in lacrimal and salivary gland tissues, IL-13; type: in vivo, mice; conditions: N=6
[10] = tested on: IL-17A; test: Quantification (ELISA) of cytokine IL-17A in plasma; type: in vivo, mice; conditions: versus control, N=3, FIG. 5
Description: as §2

[11] = tested on: IL-12; test: Quantitative RT-PCR of mRNA in lacrimal and salivary gland tissues, IL-12; type: in vivo, mice; conditions: N=6
[12] = tested on: IL-17A; test: Protein expression in lacrimal and salivary gland tissues (immunoblotting), IL-17A; type: in vivo, mice; conditions: dose of 100 mg/kg as printed; compared to control group; FIG. 3
Method: as §1

[13] = tested on: CXCL13; test: Quantitative RT-PCR of mRNA in lacrimal and salivary gland tissues, CXCL13; type: in vivo, mice; conditions: N=6
[14] = tested on: IFN-α; test: Quantitative RT-PCR of mRNA in lacrimal and salivary gland tissues, IFN-α; type: in vivo, mice; conditions: N=6
[15] = tested on: IL-21; test: Quantitative RT-PCR of mRNA in lacrimal and salivary gland tissues, IL-21; type: in vivo, mice; conditions: N=6
[16] = tested on: anti-SSA/Ro; test: Quantification (ELISA) of autoantibody anti-SSA/Ro in plasma; type: in vivo, mice
Description: as §2

[17] = tested on: disease model of Sjogren's syndrome (Nfkbiz^−/− or IkB-ξ-deficient mice, C57BL/6); test: Tear production measurement (Schirmer test, phenol red thread); type: in vivo; conditions: oral, 80 mg/kg b.i.d, 5 weeks; versus control (Ctrl) group; N=11; FIG. 1
Method: Hereinafter, experiments for evaluating the anti-inflammatory effect and tissue regeneration effect of oral administration of the composition according to one embodiment of the present invention by using a disease model of Sjogren's syndrome (Nfkbiz^−/− or IkB-ξ-deficient mice, C57BL/6) will be described in detail.
Tear production was measured using a phenol red thread (Zone-Quick; Oasis, Glendora, Calif.) 1 minute after animal anesthesia. One end of the phenol red thread was placed against the lower eyelid of the lateral canthus of the animal eye and left to stand for 60 seconds. After the thread was soaked with tear by the capillary phenomenon, the length (mm) of the thread whose color changed was measured. When the amount of tear secretion decreases, dry eye caused by Sjogren syndrome symptoms is promoted. Thus, it was determined that the greater the amount of tear secretion, the greater the effect of the test substance.

[18] = tested on: CXCR5; test: Quantitative RT-PCR of mRNA in lacrimal and salivary gland tissues, CXCR5; type: in vivo, mice; conditions: N=6
[19] = tested on: interferon-g; test: Quantitative RT-PCR of mRNA in lacrimal and salivary gland tissues, interferon-g; type: in vivo, mice; conditions: N=6
[20] = tested on: IL-17A; test: Quantitative RT-PCR of mRNA in lacrimal and salivary gland tissues, IL-17A; type: in vivo, mice; conditions: N=6
[21] = tested on: BAFF; test: Quantitative RT-PCR of mRNA in lacrimal and salivary gland tissues, BAFF; type: in vivo, mice; conditions: N=6
[22] = tested on: FLT3L; test: Quantitative RT-PCR of mRNA in lacrimal and salivary gland tissues, FLT3L; type: in vivo, mice; conditions: N=6
[23] = IkB-ξ-deficient male mice, 80 mg/kg, n = 3, vehicle = 100.0

## O=C(NC(Cc1cc(=O)[nH]c2ccccc12)C(=O)OCCN1CCOCC1)c1ccc(Cl)cc1.O=C(O)CC(=O)O (stereo not drawn) [SA001, 2-(morpholin-4-yl)ethyl 2-(4-chlorobenzoylamino)-3-(2-oxo-1,2-dihydroquinolin-4-yl)propionate malonate]
[1]; lacrimal glands
  IL-2 mRNA, decrease compared with control: 4.5 fold
[1]; salivary glands
  IL-2 mRNA, decrease compared with control: 1.3 fold
[2]; lacrimal glands
  IL-22 mRNA, decrease compared with control: 1.7 fold
[2]; salivary glands
  IL-22 mRNA, decrease compared with control: 1.6 fold
[3]
  expression of p-AKT (activated form of Akt): significantly increased
[4]; lacrimal glands
  IL-18 mRNA, decrease compared with control: not significant
[4]; salivary glands
  IL-18 mRNA, decrease compared with control: 1.6 fold
[5]; [23]
  SSB/La, No. (%): 67.9 ± 12.4%
[5]; N=3, FIG. 5
  anti-SSB in plasma, decrease compared to control group: 30%
[6]; lacrimal glands
  IL-6 mRNA, decrease compared with control: 2 fold
[6]; salivary glands
  IL-6 mRNA, decrease compared with control: 2.5 fold
[7]
  onset of the disease (disease score, inflammatory phenotype on five-point scale): significantly slowed
[8]; lacrimal glands
  TNF-α mRNA, decrease compared with control: 1.6 fold
[8]; salivary glands
  TNF-α mRNA, decrease compared with control: 2.2 fold
[9]; lacrimal glands
  IL-13 mRNA, decrease compared with control: 2 fold
[9]; salivary glands
  IL-13 mRNA, decrease compared with control: 10 fold
[10]
  IL-17A in plasma: decreased
[11]; lacrimal glands
  IL-12 mRNA, decrease compared with control: 10 fold
[11]; salivary glands
  IL-12 mRNA, decrease compared with control: not significant
[12]
  protein expression of IL-17A in the lacrimal gland and salivary gland tissues: significantly decreased
[13]; lacrimal glands
  CXCL13 mRNA, decrease compared with control: 2.5 fold
[13]; salivary glands
  CXCL13 mRNA, decrease compared with control: 5 fold
[14]; lacrimal glands
  IFN-α mRNA, decrease compared with control: 1.6 fold
[14]; salivary glands
  IFN-α mRNA, decrease compared with control: 40 fold
[15]; lacrimal glands
  IL-21 mRNA, decrease compared with control: 1.6 fold
[15]; salivary glands
  IL-21 mRNA, decrease compared with control: 20 fold
[16]; [23]
  SSA/Ro, No. (%): 61.0 ± 8.7%
[16]; N=3, FIG. 5
  anti-SSA in plasma, decrease compared to control group: 40%
[17]
  tear production: significantly increased
[18]; lacrimal glands
  CXCR5 mRNA, decrease compared with control: not significant
[18]; salivary glands
  CXCR5 mRNA, decrease compared with control: 2.5 fold
[19]; lacrimal glands
  interferon-g mRNA, decrease compared with control: 1.3 fold
[19]; salivary glands
  interferon-g mRNA, decrease compared with control: 1.3 fold
[20]; lacrimal glands
  IL-17A mRNA, decrease compared with control: 2.8 fold
[20]; salivary glands
  IL-17A mRNA, decrease compared with control: 3.3 fold
[21]; lacrimal glands
  BAFF mRNA, decrease compared with control: 1.6 fold
[21]; salivary glands
  BAFF mRNA, decrease compared with control: not significant
[22]; lacrimal glands
  FLT3L mRNA, decrease compared with control: 2.5 fold
[22]; salivary glands
  FLT3L mRNA, decrease compared with control: 13 fold
